# PMC7217150, “Synthesis, Modification, and Biological Evaluation of a Library of Novel Water‐Soluble Thiopyridone‐Based Organometallic Complexes and Their Unexpected (Biological) Behavior” (Chemistry (Weinheim an Der Bergstrasse, Germany), 2020)
# Legend:
# Assay type in all cases: cell-based, human
# SW480 [1] = assay: MTT cytotoxicity assay, monolayer culture; details: Homo sapiens; SW480, MTT assay, exposure time 96 h, means ± SDs
# Text: (§1) A549 (non‐small cell lung carcinoma), SW480 and HCT‐116 (both colon carcinoma) were kindly provided by Brigitte Marian, Institute of Cancer Research, Department of Medicine I, Medical University of Vienna, Austria. The cell line CH1/PA‐1 (ovarian teratocarcinoma) was kindly provided by Lloyd R. Kelland (CRC Centre for Cancer Therapeutics, Institute of Cancer Research, Sutton, UK). All cell culture media (including supplements) and reagents were obtained from Sigma–Aldrich, and all plasticware from StarLab, unless indicated otherwise.
# CH1/PA‐1 [2] = assay: MTT cytotoxicity assay, monolayer culture; details: Homo sapiens; CH1/PA‐1, MTT assay, exposure time 96 h, means ± SDs
# Text: as §1
# A549 = assay: MTT cytotoxicity assay, monolayer culture; details: Homo sapiens, exposure time 96 h, means ± SDs
# Text: as §1
# SW480 [3] = assay: Cell cycle distribution, flow cytometry with propidium iodide; details: for Cell cycle distribution G1, % / Cell cycle distribution G2/M, % / Cell cycle distribution S, %: 24 h, mean ± SD; for Relative change in cell cycle distribution G1, % / Relative change in cell cycle distribution G2/M, % / Relative change in cell cycle distribution S, %: difference to untreated control
# Experimental: (§2) The influence of two ligands, as well as seven complexes on cell cycle distribution was tested in two of the cancer cell lines (SW480, CH1/PA‐1) by means of flow cytometry. The cell cycle distribution (G1, S, G2/M phase in %; Table S37) was investigated upon DNA staining with propidium iodide.
# (§3) CH1/PA‐1 and SW480 cells were harvested by trypsinization, 8×10^4 and 1.2×10^5 cells per well were seeded into 12‐well plates, respectively. The cells were allowed to attach and resume proliferation for 24 h after the seeding. […] After continuous exposure for 24 h at 37 °C and under 5 % CO2, the cells were harvested by trypsinization and centrifuged at 300 g for 3 min. The cells were washed with PBS (1 mL) and resuspended in propidium iodine (PI) containing HSF buffer (600 μL; 0.1 % Triton X‐100, 0.1 % sodium citrate, 50 μg mL^−1 PI in PBS). After incubation overnight at 4 °C in the dark, 5×10^3 cells were measured by flow cytometry with a Millipore Guava easyCyte 8HT instrument (Luminex, USA). Data were evaluated by means of FlowJo software (Tree Star) using Watson Pragmatic algorithms.60 The fitting of the curve was chosen to keep the root mean square error between 1.0 and 2.0, alongside with good fitting visual model.
# CH1/PA‐1 [4] = assay: as above; details: for Cell cycle distribution G1, % / Cell cycle distribution G2/M, % / Cell cycle distribution S, %: 24 h, mean ± SD; for Relative change in cell cycle distribution G1, % / Relative change in cell cycle distribution G2/M, % / Relative change in cell cycle distribution S, %: difference to untreated control
# Experimental: as §2, §3
smiles,measurement,setting,value
"Cc1c(O)c(=S)ccn1C [Compound 2 a, 3‐hydroxy‐1,2‐dimethylpyridine‐4(1H)‐thione]",IC50,SW480 [1],3.2 ± 0.3 µM
same,IC50,CH1/PA‐1 [2],15 ± 1 µM
same,IC50,A549,66 ± 6 µM
same,"Cell cycle distribution G1, %","SW480 [3]; SW480, 5 µM",45 ± 1%
same,"Cell cycle distribution G2/M, %","SW480 [3]; SW480, 5 µM",23 ± 0%
same,"Cell cycle distribution S, %","SW480 [3]; SW480, 5 µM",32 ± 2%
same,"Relative change in cell cycle distribution G1, %","SW480 [3]; SW480, 5 µM",-3%
same,"Relative change in cell cycle distribution G2/M, %","SW480 [3]; SW480, 5 µM",4%
same,"Relative change in cell cycle distribution S, %","SW480 [3]; SW480, 5 µM",-1%
same,"Cell cycle distribution G1, %","SW480 [3]; SW480, 10 µM",41 ± 1%
same,"Cell cycle distribution G2/M, %","SW480 [3]; SW480, 10 µM",24 ± 1%
same,"Cell cycle distribution S, %","SW480 [3]; SW480, 10 µM",35 ± 2%
same,"Relative change in cell cycle distribution G1, %","SW480 [3]; SW480, 10 µM",-7%
same,"Relative change in cell cycle distribution G2/M, %","SW480 [3]; SW480, 10 µM",5%
same,"Relative change in cell cycle distribution S, %","SW480 [3]; SW480, 10 µM",2%
same,"Cell cycle distribution G1, %","SW480 [3]; SW480, 20 µM",44 ± 3%
same,"Cell cycle distribution G2/M, %","SW480 [3]; SW480, 20 µM",22 ± 2%
same,"Cell cycle distribution S, %","SW480 [3]; SW480, 20 µM",33 ± 2%
same,"Relative change in cell cycle distribution G1, %","SW480 [3]; SW480, 20 µM",-4%
same,"Relative change in cell cycle distribution G2/M, %","SW480 [3]; SW480, 20 µM",3%
same,"Relative change in cell cycle distribution S, %","SW480 [3]; SW480, 20 µM",0%
same,"Cell cycle distribution G1, %","CH1/PA‐1 [4]; CH1/PA-1, 5 µM",33 ± 4%
same,"Cell cycle distribution G2/M, %","CH1/PA‐1 [4]; CH1/PA-1, 5 µM",27 ± 5%
same,"Cell cycle distribution S, %","CH1/PA‐1 [4]; CH1/PA-1, 5 µM",40 ± 3%
same,"Relative change in cell cycle distribution G1, %","CH1/PA‐1 [4]; CH1/PA-1, 5 µM",-7%
same,"Relative change in cell cycle distribution G2/M, %","CH1/PA‐1 [4]; CH1/PA-1, 5 µM",3%
same,"Relative change in cell cycle distribution S, %","CH1/PA‐1 [4]; CH1/PA-1, 5 µM",4%
same,"Cell cycle distribution G1, %","CH1/PA‐1 [4]; CH1/PA-1, 10 µM",33 ± 4%
same,"Cell cycle distribution G2/M, %","CH1/PA‐1 [4]; CH1/PA-1, 10 µM",26 ± 6%
same,"Cell cycle distribution S, %","CH1/PA‐1 [4]; CH1/PA-1, 10 µM",41 ± 8%
same,"Relative change in cell cycle distribution G1, %","CH1/PA‐1 [4]; CH1/PA-1, 10 µM",-7%
same,"Relative change in cell cycle distribution G2/M, %","CH1/PA‐1 [4]; CH1/PA-1, 10 µM",2%
same,"Relative change in cell cycle distribution S, %","CH1/PA‐1 [4]; CH1/PA-1, 10 µM",5%
same,"Cell cycle distribution G1, %","CH1/PA‐1 [4]; CH1/PA-1, 20 µM",35 ± 3%
same,"Cell cycle distribution G2/M, %","CH1/PA‐1 [4]; CH1/PA-1, 20 µM",28 ± 4%
same,"Cell cycle distribution S, %","CH1/PA‐1 [4]; CH1/PA-1, 20 µM",37 ± 9%
same,"Relative change in cell cycle distribution G1, %","CH1/PA‐1 [4]; CH1/PA-1, 20 µM",-5%
same,"Relative change in cell cycle distribution G2/M, %","CH1/PA‐1 [4]; CH1/PA-1, 20 µM",4%
same,"Relative change in cell cycle distribution S, %","CH1/PA‐1 [4]; CH1/PA-1, 20 µM",1%
